Measurements taken from PubChem BioAssay (NCI).
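Test compounds were applied to cells in 96-well plates for 48 hours at 5 doses. Abbreviation: GI50, concentration required for 50% inhibition of growth. TGI: concentration producing complete growth inhibition.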

Assays:
Assay in all cases: inhibition of tumour cell growth, NCI panel, 48 h
[1] = system: RPMI-8226 leukemia
[2] = system: MDA-MB-435
[3] = system: PC-3 prostate
[4] = system: SN12C renal
[5] = system: EKVX NSCLC
[6] = system: ACHN renal
[7] = system: HCT-15 colon
[8] = system: 786-0 renal
[9] = system: CCRF-CEM leukemia
[10] = system: SK-MEL-2 melanoma
[11] = system: NCI-H460 lung
[12] = system: LOX IMVI melanoma
[13] = system: IGROV1 ovarian
[14] = system: UACC-257 melanoma
[15] = system: OVCAR-4 ovarian
[16] = system: T-47D breast
[17] = system: HOP-62 NSCLC
[18] = system: KM12 colon
[19] = system: U251 CNS
[20] = system: K-562 leukemia
[21] = system: SF-295 CNS
[22] = system: UO-31 renal
[23] = system: M14 melanoma
[24] = system: SR leukemia
[25] = system: DU-145 prostate
[26] = system: BT-549 breast
[27] = system: RXF 393 renal
[28] = system: TK-10 renal
[29] = system: CAKI-1 renal

O=C(NO)c1ccc(-c2nc3ccc4[nH]ncc4c3c3c2CCCC3)cc1
GI50 [1]: 1650 nM
TGI [1]: > 44600 nM
GI50 [2]: 340 nM
TGI [2]: 1490 nM
GI50 [3]: 424 nM
TGI [3]: > 67200 nM
GI50 [4]: 281 nM
TGI [4]: 3390 nM
GI50 [5]: 480 nM
TGI [5]: 3260 nM
GI50 [6]: 193 nM
TGI [6]: 5960 nM
GI50 [7]: 250 nM
TGI [7]: 8570 nM
GI50 [8]: 307 nM
TGI [8]: 1210 nM
GI50 [9]: 361 nM
TGI [9]: > 100000 nM
GI50 [10]: 247 nM
TGI [10]: 792 nM
GI50 [11]: 486 nM
TGI [11]: 2490 nM
GI50 [12]: 306 nM
TGI [12]: 1320 nM
GI50 [13]: 318 nM
TGI [13]: 3110 nM
GI50 [14]: 1290 nM
TGI [14]: > 23200 nM
GI50 [15]: 706 nM
TGI [15]: 6380 nM
GI50 [16]: 196 nM
TGI [16]: 1750 nM
GI50 [17]: 253 nM
TGI [17]: 5210 nM
GI50 [18]: 391 nM
TGI [18]: 13700 nM
GI50 [19]: 287 nM
TGI [19]: 4970 nM
GI50 [20]: 495 nM
TGI [20]: > 100000 nM
GI50 [21]: 880 nM
TGI [21]: 9760 nM
GI50 [22]: 599 nM
TGI [22]: 8480 nM
GI50 [23]: 415 nM
TGI [23]: 1780 nM
GI50 [24]: 117 nM
GI50 [25]: 407 nM
TGI [25]: > 34900 nM
GI50 [26]: 187 nM
TGI [26]: 680 nM
GI50 [27]: 103 nM
TGI [27]: 508 nM
GI50 [28]: 261 nM
TGI [28]: 10400 nM
GI50 [29]: 260 nM
TGI [29]: 6810 nM
